# Laboratory results as given in US20240158392A1 (Janssen Biotech, Inc., priority 2021, published 2024).
# Biological target: SIK2 (Homo sapiens, UniProt Q9H0K1)
# Assay: SIK2 Enzymatic Assay High Version 2 (High ATP)
# Format: biochemical
# Conditions: not given
# Outline: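 At room temperature, enzyme (6 nM, 2× final) was preincubated with compound for 30 min, then 6 mM ATP and 400 μM HDAC5tide (both 2× final) were added for 2 h. ADP formed was measured by ADP-Glo Max (2 h reagent, 1 h detection) using luminescence.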
# SIK2, sequence (Q9H0K1 whole entry, species assumed): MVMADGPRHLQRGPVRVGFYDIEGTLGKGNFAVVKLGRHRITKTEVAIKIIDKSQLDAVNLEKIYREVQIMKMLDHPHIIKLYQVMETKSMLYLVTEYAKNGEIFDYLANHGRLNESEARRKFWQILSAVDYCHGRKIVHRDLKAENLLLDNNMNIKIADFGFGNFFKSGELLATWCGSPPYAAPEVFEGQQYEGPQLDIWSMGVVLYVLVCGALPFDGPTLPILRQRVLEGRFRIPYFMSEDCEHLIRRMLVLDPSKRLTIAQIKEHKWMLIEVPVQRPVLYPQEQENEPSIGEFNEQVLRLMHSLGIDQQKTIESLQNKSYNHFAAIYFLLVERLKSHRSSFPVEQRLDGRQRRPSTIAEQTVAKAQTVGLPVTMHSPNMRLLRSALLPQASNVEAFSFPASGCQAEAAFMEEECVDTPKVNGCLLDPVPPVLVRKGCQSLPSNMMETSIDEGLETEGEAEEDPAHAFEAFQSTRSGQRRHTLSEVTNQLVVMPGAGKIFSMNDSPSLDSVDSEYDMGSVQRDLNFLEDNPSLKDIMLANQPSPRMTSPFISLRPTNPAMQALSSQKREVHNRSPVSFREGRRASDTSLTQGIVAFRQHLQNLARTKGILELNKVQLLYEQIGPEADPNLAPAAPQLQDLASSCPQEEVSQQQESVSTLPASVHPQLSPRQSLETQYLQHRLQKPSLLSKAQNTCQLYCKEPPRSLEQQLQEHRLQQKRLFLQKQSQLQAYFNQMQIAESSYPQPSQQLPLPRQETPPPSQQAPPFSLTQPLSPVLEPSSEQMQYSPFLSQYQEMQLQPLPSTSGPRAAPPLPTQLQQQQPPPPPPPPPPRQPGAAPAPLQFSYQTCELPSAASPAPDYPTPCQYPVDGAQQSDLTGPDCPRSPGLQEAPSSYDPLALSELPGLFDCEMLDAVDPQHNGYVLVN
row,SMILES,IC50 [µM]
1,"Cc1cc(-c2cn3cc(NC(=O)C4CC4)nc3cn2)c(O[C@H]2C[C@H]3COC[C@@H](C2)N3)cn1 [Example 505, N-[6-[2-methyl-5-[[(1S,5R)-3-oxa-9-azabicyclo[3.3.1]nonan-7-yl]oxy]-4-pyridyl]imidazo[1,2-a]pyrazin-2-yl]cyclopropanecarboxamide]",0.012
2,"Cc1cc(-c2ccn3nc(NC(=O)C4CC4)cc3c2)c(OC[C@@H]2CCN2C)cn1 [Example 512, N-[5-[2-methyl-5-[[(2S)-1-methylazetidin-2-yl]methoxy]-4-pyridyl]pyrazolo[1,5-a]pyridin-2-yl]cyclopropanecarboxamide]",0.0347
3,"Cc1cc(-c2ccn3nc(Nc4cccnn4)cc3c2)c(O[C@H]2C[C@H]3CC[C@@H](C2)N3C)cn1 [Example 514, 5-[2-methyl-5-[[(1S,5R)-8-methyl-8-azabicyclo[3.2.1]octan-3-yl]oxy]-4-pyridyl]-N-pyridazin-3-yl-pyrazolo[1,5-a]pyridin-2-amine]",0.0303
4,"Cc1cc(-c2ccn3nc(NC(=O)C4CC4)cc3c2)c(O[C@H]2C[C@@](C)(N)C2)cn1 [Example 517, N-[5-[5-(3-amino-3-methyl-cyclobutoxy)-2-methyl-4-pyridyl]pyrazolo[1,5-a]pyridin-2-yl]cyclopropanecarboxamide]",0.016
5,"Cc1cc(-c2ccn3nc(Nc4cc(C)nc(C)n4)cc3c2)c(OC[C@@H]2CCN2C)cn1 [Example 521, N-(2,6-dimethylpyrimidin-4-yl)-5-[2-methyl-5-[[(2S)-1-methylazetidin-2-yl]methoxy]-4-pyridyl]pyrazolo[1,5-a]pyridin-2-amine]",0.0607
6,"Cc1cc(-c2ccn3nc(Nc4ccc(C)nn4)cc3c2)c(O[C@@H]2[C@@H]3CO[C@H]2CN3)cn1 [Example 523, 5-[2-methyl-5-[[(1S,4S,7R)-2-oxa-5-azabicyclo[2.2.1]heptan-7-yl]oxy]-4-pyridyl]-N-(6-methylpyridazin-3-yl)pyrazolo[1,5-a]pyridin-2-amine]",0.00462
7,"Cc1cc(-c2ccn3nc(Nc4cc(C)nc(C)n4)cc3c2)c(O[C@@H]2[C@@H]3CO[C@H]2CN3)cn1 [Example 524, N-(2,6-dimethylpyrimidin-4-yl)-5-[2-methyl-5-[[(1S,4S,7R)-2-oxa-5-azabicyclo[2.2.1]heptan-7-yl]oxy]-4-pyridyl]pyrazolo[1,5-a]pyridin-2-amine]",0.0203
8,"Cc1cc(-c2ccn3nc(Nc4ccc(C5CC5)nn4)cc3c2)c(O[C@@H]2[C@@H]3CO[C@H]2CN3)cn1 [Example 525, N-(6-cyclopropylpyridazin-3-yl)-5-[2-methyl-5-[[(1S,4S,7R)-2-oxa-5-azabicyclo[2.2.1]heptan-7-yl]oxy]-4-pyridyl]pyrazolo[1,5-a]pyridin-2-amine]",0.0594
9,"Cc1cc(-c2ccn3nc(NC(=O)C4CC4)cc3c2)c(OC[C@@H]2CCN2)cn1 [Example 526, N-[5-[5-[[(2S)-azetidin-2-yl]methoxy]-2-methyl-4-pyridyl]pyrazolo[1,5-a]pyridin-2-yl]cyclopropanecarboxamide]",0.0198

# Same assay, conditions: enzyme 6 nM, 6 mM ATP and 400 μM HDAC5tide (each 2× final concentration); 30 minutes pre-incubation, 2 hours; ADP-Glo Max luminescence; read-out: SIK2 high ATP IC50 (μM) (Test Example 2)
row,SMILES,IC50 [µM]
1,"Cc1cc(-c2ccc3nc(NC(=O)C4CC4)cn3c2)c(O[C@H]2CC[C@H](O)CC2)cn1 [Example 504, N-[6-[5-(4-hydroxycyclohexoxy)-2-methyl-4-pyridyl]imidazo[1,2-a]pyridin-2-yl]cyclopropanecarboxamide]",< 0.000847
2,"Cc1cc(-c2cn3cc(Nc4cc(C)nc(C)n4)nc3cn2)c(O[C@H]2CC[C@@H](O)CC2)cn1 [Example 506, 4-[[4-[2-[(2,6-dimethylpyrimidin-4-yl)amino]imidazo[1,2-a]pyrazin-6-yl]-6-methyl-3-pyridyl]oxy]cyclohexanol]",0.0178
3,"Cc1cc(-c2cn3cc(Nc4cc(C)nc(C)n4)nc3cn2)c(O[C@H]2CC[C@H](O)CC2)cn1 [Example 507, 4-[[4-[2-[(2,6-dimethylpyrimidin-4-yl)amino]imidazo[1,2-a]pyrazin-6-yl]-6-methyl-3-pyridyl]oxy]cyclohexanol]",0.0297
4,"Cc1cc(-c2ccn3nc(NC(=O)C4CC4)cc3c2)c(O[C@H]2CNC2(C)C)cn1 [Example 510, N-[5-[5-[(3S)-2,2-dimethylazetidin-3-yl]oxy-2-methyl-4-pyridyl]pyrazolo[1,5-a]pyridin-2-yl]cyclopropanecarboxamide]",0.0614
5,"Cc1cc(-c2ccn3nc(Nc4cnn(C(C)C)c4)cc3c2)c(OC2CN(C)C2)cn1 [Example 511, N-(1-isopropylpyrazol-4-yl)-5-[2-methyl-5-(1-methylazetidin-3-yl)oxy-4-pyridyl]pyrazolo[1,5-a]pyridin-2-amine]",0.0683
6,"Cc1cc(-c2ccn3nc(Nc4cccnn4)cc3c2)c(O[C@H]2C[C@H](N)C2)cn1 [Example 520, 5-[5-(3-aminocyclobutoxy)-2-methyl-4-pyridyl]-N-pyridazin-3-yl-pyrazolo[1,5-a]pyridin-2-amine]",0.0445

# Now from value to compound:
row,IC50 [µM],SMILES
1,0.00352,"Cc1cc(Nc2cc3cc(-c4cc(OCC(F)(F)F)ncc4OC[C@H]4OCC[C@@H]4O)ccn3n2)nc(C)n1 [Example 499, (2R,3S)-2-[[4-[2-[(2,6-dimethylpyrimidin-4-yl)amino]pyrazolo[1,5-a]pyridin-5-yl]-6-(2,2,2-trifluoroethoxy)-3-pyridyl]oxymethyl]tetrahydrofuran-3-ol]"
2,0.0454,"Cc1cc(Nc2cc3cc(-c4cc(OCC#N)ncc4OC[C@H]4OCC[C@@H]4O)ccn3n2)nc(C)n1 [Example 500, 2-[[4-[2-[(2,6-dimethylpyrimidin-4-yl)amino]pyrazolo[1,5-a]pyridin-5-yl]-5-[[(2R,3S)-3-hydroxytetrahydrofuran-2-yl]methoxy]-2-pyridyl]oxy]acetonitrile]"
3,0.00172,"CNc1cc(-c2ccn3nc(Nc4cc(C)nc(C)n4)cc3c2)c(OC[C@@H]2CNCCO2)cn1 [Example 501, N-(2,6-dimethylpyrimidin-4-yl)-5-[2-(methylamino)-5-[[(2S)-morpholin-2-yl]methoxy]-4-pyridyl]pyrazolo[1,5-a]pyridin-2-amine]"
4,0.00682,"Cc1cc(Nc2cc3cc(-c4cc(OC(F)F)ncc4OC[C@@H]4CNCCO4)ccn3n2)nc(C)n1 [Example 502, 5-[2-(difluoromethoxy)-5-[[(2S)-morpholin-2-yl]methoxy]-4-pyridyl]-N-(2,6-dimethylpyrimidin-4-yl)pyrazolo[1,5-a]pyridin-2-amine]"
5,0.0275,"Cc1cc(-c2ccn3nc(Nc4cccnn4)cc3c2)c(OC[C@@H]2CN[C@H](C)CO2)cn1 [Example 513, 5-[2-methyl-5-[[(2S,5R)-5-methylmorpholin-2-yl]methoxy]-4-pyridyl]-N-pyridazin-3-yl-pyrazolo[1,5-a]pyridin-2-amine]"
6,0.000864,"Cc1cc(-c2ccn3nc(Nc4cnccn4)cc3c2)c(OC[C@@H]2CN(C)CCO2)cn1 [Example 515, 5-[2-methyl-5-[[(2S)-4-methylmorpholin-2-yl]methoxy]-4-pyridyl]-N-pyrazin-2-yl-pyrazolo[1,5-a]pyridin-2-amine]"
7,0.0559,"Cc1cc(-c2ccn3nc(Nc4cccnn4)cc3c2)c(OC[C@@H]2CNCC(C)(C)O2)cn1 [Example 518, 5-[5-[[(2S)-6,6-dimethylmorpholin-2-yl]methoxy]-2-methyl-4-pyridyl]-N-pyridazin-3-yl-pyrazolo[1,5-a]pyridin-2-amine]"
